Each block holds one compound with its values, some of them ahead of it.
What was measured:
[1] = tested on: diacylglycerol acyltransferase (DGAT); assay: DGAT enzyme assay, rat liver microsomes, [14C]triglyceride by TLC or 1-step extraction; conditions: for Production of [14C]TAG: 0.8% solvent in reaction
Procedure: Rats were euthanized using CO2 affixation; their livers were immediately removed and placed in ice-cold microsome buffer (MC buffer) consisting of 125 mM sucrose, 3.0 mM imidazole, pH 7.4. Livers were cut into approximately 10 pieces, placed into 20 mL of ice cold MC buffer per liver and homogenized on ice in a glass Dounce power homogenizer using 10 up-and-down strokes. Homogenates were centrifuged at 1700 rpm in a Beckman JA-14 rotor for 10 minutes at 4° C. The supernatant was removed and placed on ice. The pellet was resuspended in 4.0 mL MC buffer per liver, rehomogenized as described above, and centrifuged at 1700 rpm in a Beckman JA-14 rotor for 10 minutes at 4° C. This supernatant was combined with the previous supernatant and centrifuged at 13,000 rpm in a Beckman JA-14 rotor for 20 minutes at 4° C. The supernatant was transferred to new tubes on ice, and the pellet was discarded. The supernate was centrifuged at 35,000 rpm in a Beckman Ti-70 rotor for 60 minutes at 4° C., and the resulting pellet, containing microsomal membranes, was resuspended in ice cold MC buffer using 17 strokes of a glass Dounce power homogenizer. Microsomal protein concentrations were determined by the Dc Protein Assay, and BSA was used to generate the standard curve. Microsomes were diluted to final protein concentration of 10 to 20 mg/mL. Microsomes were aliquoted into 1.0-mL tubes and stored in a liquid N2 cryofreezer.
DGAT Assay Buffer (DAB): 0.25 M sucrose, 1.0 mM EDTA, pH 8.0, 150 mM Tris-HCl, pH 7.4, and 1.25 mg/mL fatty acid free BSA.
Compounds were dissolved in DMSO and diluted to make 10× with DAB (10×compound) and kept at room temperature until the assay was performed.
Frozen aliquots of microsomes (10-20 mg/mL total protein) were thawed on ice and diluted to make a 5× working stock at the indicated concentrations with MC buffer and stored on ice until use.
The DGAT assay reaction was performed as follows: 5 μL of 10× compound was added to Perkin Elmer thin-walled reaction tubes followed by 35 μL of DGAT substrate mixture and vortexed. The reaction was started by the addition of 10 μL of the diluted 5× microsomes, vortexed, and incubated in a Perkin Elmer 9600 thermocycler for the indicated times and temperatures.
Reactions were stopped by the addition of 10 μL of 0.75N HCl. Samples were then spotted onto TLC plates and dried in a gravity convection oven at 70° C. for 30 minutes. Plates were developed in a 27×7.5×26 cm TLC chamber for 60 minutes at room temperature in 102 mL of isooctane:ethyl ether:acetic acid (75:25:2) for triglyceride determination. TLC plates were removed from the chamber, dried in a gravity convection oven at 70° C. for 30 minutes, wrapped in cellophane, and exposed to phosphorimager plates overnight. Phosphorimager plates were scanned on a phosphorimager and images were analyzed using ImageQuant software. A [^14C]glycerol trioleate standard was titrated onto TLC plates for mass determinations. All statistics were performed using Microsoft Excel's analysis software using a two-tailed t-test for means.
Reactions were stopped by the addition of 150 μL of AESSM followed by the addition of 300 μL of n-heptane. The mixture is pipetted 5× to mix and allowed to separate for 5 minutes at room temperature. The entire top phase, n-heptane phase, is removed to new tubes and spotted onto silica TLC plates and processed as described above (see TLC method) or placed into 5-mL scintillation vials containing scintillation cocktail and counted.

[2] = target: T1, diacylglycerol acyltransferase (DGAT); assay: 96-well DGAT mass screen assay; format: biochemical, rat; conditions: 22° C., 60 minutes
T1 construct: IC50, DGAT activity; other: Group 1 rat liver microsome preparation; 1-Step/Scintillation; 37° C., 5 minutes; 1-Step/TLC; TLC; other: Group 2 rat liver microsome preparation; 1-Step/Scintillation
Procedure: Plates are loaded onto the robot carousel. […] The robot arm transfers the plate to multidrop 2 for the addition of 20 μL of diluted microsomes and shaken for 1.0 minute at room temperature. The robot arm transfers the plate back to the carousel where it incubates for 1.0 hour at room temperature. The robot arm transfers the plate to multidrop 3 for the addition of 150 μL of AESSM. The robot arm transfers the plate to the multimek to begin the extraction. The reaction volume is transferred to a 96-[…] polypropylene extraction plate on the multimek. The tips are washed 3×100 μL of DI H2O in a reagent reservoir with a continuous flow of DI H2O. The multimek then washes out the 96-well reaction plate with 3×100 μL of n-heptane and transfers the volume to the extraction plate. The multimek mixes the volume in the extraction plate 6×100 μL, and the plate sits for 10 seconds. The tips are washed 3×100 μL of DI H2O in a continuous flow reagent reservoir. One hundred microliters of the top n-heptane phase is transferred to a Flash plate. The robot arm transfers the Flash plate to a carousel fitted with a fume hood, which allows the n-heptane to evaporate for a minimum of 6 hours. The plates are transferred to a plate sealer to be sealed, transferred to the top count scintillation counter, and counted for 1.0 minute. Data are collected and reported to the Trillium based compound management system.

DGAT activity increase above control ([1]; 0.5% ethanol): 121% | Production of [14C]TAG [1]: 104±0.4 pmoles [14C]TAG/mg microbe pro | DGAT activity increase above controls ([1]; 4.0% ethanol): 180%
SMILES: CCO [95% EtOH, ethanol]

IC50 ([1]; read-out: IC50, DGAT activity, Group 1 rat liver microsome preparation, 1-Step/Scintillation, 37° C., 5 minutes): 1.66 µM | IC50 ([1]; read-out: IC50, DGAT activity, Group 1 rat liver microsome preparation, 1-Step/TLC, 37° C., 5 minutes): 0.95 µM | IC50 ([1]; read-out: IC50, DGAT activity, Group 1 rat liver microsome preparation, TLC, 37° C., 5 minutes): 1.07 µM | IC50 ([1]; read-out: IC50, DGAT activity, Group 2 rat liver microsome preparation, 1-Step/Scintillation, 37° C., 5 minutes): 1.12 µM | IC50 ([1]; read-out: IC50, DGAT activity, Group 2 rat liver microsome preparation, 1-Step/TLC, 37° C., 5 minutes): 1.14 µM | IC50 ([1]; read-out: IC50, DGAT activity, Group 2 rat liver microsome preparation, TLC, 37° C., 5 minutes): 1.52 µM | IC50 ([1]; read-out: IC50, DGAT activity, Group 3 rat liver microsome preparation, 1-Step/Scintillation, 37° C., 5 minutes): 2.05 µM | IC50 ([1]; read-out: IC50, DGAT activity, Group 3 rat liver microsome preparation, 1-Step/TLC, 37° C., 5 minutes): 2.3 µM | IC50 ([1]; read-out: IC50, DGAT activity, Group 3 rat liver microsome preparation, TLC, 37° C., 5 minutes): 1.74 µM | IC50 ([1]; read-out: IC50, DGAT activity, Group 4 rat liver microsome preparation, 1-Step/Scintillation, 37° C., 5 minutes): 1.1 µM | IC50 ([1]; read-out: IC50, DGAT activity, Group 4 rat liver microsome preparation, 1-Step/TLC, 37° C., 5 minutes): 0.73 µM | IC50 ([1]; read-out: IC50, DGAT activity, Group 4 rat liver microsome preparation, TLC, 37° C., 5 minutes): 0.91 µM | IC50 ([1]; read-out: IC50, DGAT inhibition, 0.8% ethanol and TLC): 2.6 µM | IC50 ([1]; read-out: IC50, DGAT inhibition, 0.8% ethanol extracted (1-step) and run on TLC): 2.4 µM | IC50 ([1]; read-out: IC50, DGAT inhibition, […] acetone:chloroform (8:2) and TLC): 2 µM | IC50 ([1]; read-out: IC50, DGAT inhibition, […] acetone:chloroform (8:2) extracted (1-step) and run on TLC): 2.5 µM | IC50 ([2]; manually extracted samples): 1.7 µM | IC50 ([2]; plate 1, 96-well mass screen extraction): 1.5 µM | IC50 ([2]; plate 2, 96-well mass screen extraction): 1.27 µM
SMILES: Cc1ccc2c(c1)Oc1ccc(NC(=O)c3ccc(O)cc3)cc1C(=O)N2C [N-(7,10-dimethyl-11-oxo-10,11-dihydro-dibenzo[b,f][1,4]oxazepin-2-yl)-4-hydroxy-benzamide]

Production of [14C]TAG [1]: 20±0.02 pmoles [14C]TAG/mg microbe pro
SMILES: CCCCCCCC/C=C\CCCCCCCC(=O)OCCOCC(OCCO)C1OCC(OCCO)C1OCCO (stereo not drawn) [Tween 80]

The next lines start with the compound.

SMILES: CC(C)=O [Acetone, acetone]
DGAT activity increase above controls ([1]; 10.0% acetone): 394%

SMILES: ClC(Cl)Cl [Chloroform, chloroform]
DGAT activity, % of control ([1]; 0.35% chloroform): 955%

SMILES: C[S+](C)[O-] [DMSO]
effect on DGAT activity ([1]; 37° C. and 22° C.): decreases DGAT activity in a linear manner | DMSO concentration at which DGAT assay showed significant changes ([1]; 37° C. and 22° C., p<0.05): 4.5%

Reference: patent US6607893B2, “Diacylglycerol acyltransferase (DGAT) assay” (Warner-Lambert Company, priority 2000, dated 2003)
